One experiment concerns the target T1, ECE-2 (Homo sapiens, UniProt P0DPD6).
T1 construct: purchased R&D Systems (Minneapolis, MN)
T1 sequence (P0DPD6 1-811): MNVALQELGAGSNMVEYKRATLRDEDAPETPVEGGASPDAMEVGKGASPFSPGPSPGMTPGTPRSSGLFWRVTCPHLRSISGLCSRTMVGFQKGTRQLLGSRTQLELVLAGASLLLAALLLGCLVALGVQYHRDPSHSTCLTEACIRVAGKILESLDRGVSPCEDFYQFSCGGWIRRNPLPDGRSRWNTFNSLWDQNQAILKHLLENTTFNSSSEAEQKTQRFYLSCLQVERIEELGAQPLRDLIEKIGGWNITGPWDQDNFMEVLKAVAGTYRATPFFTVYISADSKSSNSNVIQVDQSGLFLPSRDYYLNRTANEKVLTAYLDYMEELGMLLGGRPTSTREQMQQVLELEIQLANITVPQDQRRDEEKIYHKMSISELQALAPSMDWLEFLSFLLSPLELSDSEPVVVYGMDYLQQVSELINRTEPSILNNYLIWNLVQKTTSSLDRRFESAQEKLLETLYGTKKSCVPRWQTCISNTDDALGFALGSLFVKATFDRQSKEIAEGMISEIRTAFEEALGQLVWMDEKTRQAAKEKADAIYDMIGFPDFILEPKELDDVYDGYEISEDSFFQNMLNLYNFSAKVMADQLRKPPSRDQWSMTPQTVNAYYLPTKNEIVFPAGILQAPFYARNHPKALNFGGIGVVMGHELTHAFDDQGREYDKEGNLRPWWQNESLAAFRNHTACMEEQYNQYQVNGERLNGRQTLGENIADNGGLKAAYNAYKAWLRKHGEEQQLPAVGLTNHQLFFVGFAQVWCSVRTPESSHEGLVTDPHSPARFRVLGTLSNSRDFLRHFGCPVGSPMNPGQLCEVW
Nature of the experiment: Purified peptidase assay, ECE-2. It is filed as biochemical. To be noted: recombinant purified human enzyme; for prodrugs the active form was tested. As for the experimental part:
Purified recombinant human enzymes were purchased from R&D Systems (Minneapolis, MN). […] Each substrate was diluted to 100 μM in the assay buffer recommended for each enzyme by the supplier. […] To these, 5 μl of diluted enzyme was added, followed by 10 μl of the quenched peptide substrate. The plates were incubated at 37°C until at least 10% substrate turnover or 5 μM product had formed. Fluorescence was measured using a Tecan Safire II (Excitation 320 nm/Emission 420 nm). Each plate included a standard curve of reaction product and positive (no enzyme) and negative (dimethyl sulfoxide vehicle) controls. Dose-response data were plotted and inhibition values (IC50) determined by linear regression analysis using GraphPad Prism (GraphPad Software, La Jolla, CA).

The target in another experiment is T2, NEP (Rattus norvegicus, UniProt P07861).
T2 construct: NEP enzyme activity was measured in tissue homogenates; from tissue; host or cells: Wistar rat kidney, lung, duodenum, jejunum homogenates
T2 sequence (P07861 1-750): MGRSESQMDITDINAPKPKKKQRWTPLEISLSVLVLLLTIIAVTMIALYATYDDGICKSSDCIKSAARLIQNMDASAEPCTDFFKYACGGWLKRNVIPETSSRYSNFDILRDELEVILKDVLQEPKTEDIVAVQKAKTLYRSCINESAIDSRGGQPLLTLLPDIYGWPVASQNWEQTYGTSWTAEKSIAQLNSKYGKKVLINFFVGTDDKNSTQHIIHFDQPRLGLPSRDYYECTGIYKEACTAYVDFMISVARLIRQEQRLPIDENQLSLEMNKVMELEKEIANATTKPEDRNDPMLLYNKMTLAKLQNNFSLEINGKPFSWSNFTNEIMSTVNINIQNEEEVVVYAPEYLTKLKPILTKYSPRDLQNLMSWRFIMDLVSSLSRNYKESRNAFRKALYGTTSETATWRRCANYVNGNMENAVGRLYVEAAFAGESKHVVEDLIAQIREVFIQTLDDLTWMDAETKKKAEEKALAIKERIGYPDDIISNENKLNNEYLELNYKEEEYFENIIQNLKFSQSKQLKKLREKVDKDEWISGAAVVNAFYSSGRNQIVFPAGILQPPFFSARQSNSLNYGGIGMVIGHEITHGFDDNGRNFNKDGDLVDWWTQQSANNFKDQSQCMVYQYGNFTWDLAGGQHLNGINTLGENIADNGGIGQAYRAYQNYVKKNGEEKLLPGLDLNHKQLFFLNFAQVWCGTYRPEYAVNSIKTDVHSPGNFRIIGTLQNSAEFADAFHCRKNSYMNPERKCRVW
The experiment in a line: NEP enzyme activity in tissues after oral treatment. It is filed as in vivo. Conditions: 5 hours postdose, single oral dose, rats. As for the experimental part: Four or five 2-mm Zirconia beads (Biospec, Bartlesville, OK) were added to fresh weighed tissue specimens (50–250 mg). Assay buffer consisting of 50 mM Tris-HCl (pH 7.4), 200 mM NaCl, and 0.05% TritonX-100 was added (4 μl/mg), and the sample was homogenized for 1 minute using a bead beater (Biospec). Stored frozen homogenates were thawed at room temperature and centrifuged 10 minutes at 18,000g, and the protein concentration was determined for each supernatant. […] NEP substrate 2Abz-dArg-Gly-Leu-C2-Dnp (American Peptide, Sunnyvale, CA) was prepared at 1 mM in 20% acetonitrile/water and diluted to 100 μM in assay buffer, and 10 μl was dispensed to homogenate-containing wells. […] Kinetic data were plotted to determine the rate of product formation by linear regression with interpolation against a standard curve, and the rate was normalized to protein concentration.

Usually IC50 stands for the concentration that inhibits the measured activity by half.

For `Cc1nc2ccc(CCCNC(=O)C3(C[C@@H](C)C(=O)O)CCCC3)cc2s1` [UK-505,749, (R)-2-methyl-3-(1-((3-(2-methylbenzo[d]thiazol-6-yl)propyl)carbamoyl)cyclopentyl)propanoic acid], at ECE-2, the IC50 was 15 µM. Also, the “Inhibition of NEP in the intestinal segments” value at NEP is on record as more than 92%; at NEP (listed as UK-505,797) it was not below 97%.

The values above are taken from PMC4851326, “Pharmacologic Comparison of Clinical Neutral Endopeptidase Inhibitors in a Rat Model of Acute Secretory Diarrhea” (The Journal of Pharmacology and Experimental Therapeutics, 2016).
